Laboratory results: ChEMBL document CHEMBL3272043, “Isoxazole anthelmintics” (1977)
The source made the active and inactive calls. The rule behind the calls is not given here.

How the values were obtained:
[1] = system: Nippostrongylus brasiliensis; experiment: Anthelmintic activity against Nippostrongylus brasiliensisin in parasitized albino rat assessed as dose required to 75 % clearance at 500 mg/kg, po relative to untreated control; type: functional, organism-based; parameters: dose 500 mg/kg
[2] = system: Nippostrongylus brasiliensis; experiment: Anthelmintic activity against Nippostrongylus brasiliensisin in parasitized po dosed albino rat assessed as dose required to 75 % clearance relative to untreated control; type: functional; conditions: read-out: MED

FC(F)(F)c1cc(-c2ccccc2)on1 was tested, and the Activity [1] was “inactive”.

Cc1ccc(-c2cc(Cl)no2)cc1 was tested, and the minimal effective dose [2] was 500 mg/kg.

FC(F)(F)c1cc(-c2ccccc2)no1 was tested, and the Activity [1] was “inactive”.

Clc1cc(-c2ccccc2)on1 gave a minimal effective dose [2] of 31 mg/kg.

Ic1cc(-c2ccccc2)on1 showed a minimal effective dose [2] of 250 mg/kg.

In the case of CSc1cc(-c2ccccc2)no1, the minimal effective dose [2] is reported as 31 mg/kg.

With Clc1ccc(-c2cc(Cl)no2)c(Cl)c1 the minimal effective dose [2] was 62 mg/kg.

For CN(C)c1cc(-c2ccccc2)no1, the minimal effective dose [2] was 125 mg/kg.

For Brc1cc(-c2ccccc2)no1, the minimal effective dose [2] was 16 mg/kg.

Compound C=CCCCOc1cc(-c2ccccc2)no1 has a minimal effective dose [2] of 125 mg/kg.

With CNC(=O)Nc1cc(-c2ccccc2)on1 the Activity [1] was “inactive”.

For O=C(CC[N+](=O)[O-])c1cccs1, the Activity [1] was “inactive”.

For Clc1cc(-c2cccs2)on1, the minimal effective dose [2] was 250 mg/kg.

Compound Clc1cc(-c2ccccc2)no1 has a minimal effective dose [2] of 16 mg/kg.

For CS(=O)(=O)Oc1cc(-c2ccccc2)on1, the Activity [1] was “inactive”.

CCOc1cc(-c2ccccc2)no1 showed a minimal effective dose [2] of 31 mg/kg.

In the case of O=[N+]([O-])c1ccc(-c2cc(Cl)no2)cc1, the Activity [1] is reported as “inactive”.

With CCSCCOc1cc(-c2ccccc2)no1 the Activity [1] was “inactive”.

With O=C(CC[N+](=O)[O-])c1ccc(Cl)cc1Cl the Activity [1] was “inactive”.

For Nc1noc(-c2ccccc2)c1Br, the Activity [1] was “inactive”.

CSc1onc(-c2ccccc2)c1Cl was tested, and the Activity [1] was “inactive”.

Compound COc1cc(-c2ccccc2)no1 has a minimal effective dose [2] of 31 mg/kg.

For Nc1noc(-c2ccccc2)c1Cl, the Activity [1] was “inactive”.

For c1ccc(-c2ccon2)cc1, the Activity [1] was “inactive”.

With Clc1ccc(-c2ccno2)cc1 the Activity [1] was “inactive”.

C=CCc1c(-c2ccccc2)noc1Cl was tested, and the Activity [1] was “inactive”.

c1ccc(CSc2cc(-c3ccccc3)no2)cc1 was tested, and the Activity [1] was “inactive”.

With Brc1cc(-c2ccccc2)on1 the minimal effective dose [2] was 31 mg/kg.

For C[S+]([O-])c1cc(-c2ccccc2)no1 (stereo not drawn), the Activity [1] was “inactive”.

c1ccc(-c2cc(N3CCOCC3)on2)cc1 was tested, and the minimal effective dose [2] was 500 mg/kg.

For O=[N+]([O-])c1cc(-c2cc(Cl)no2)ccc1Cl, the Activity [1] was “inactive”.

In the case of Cc1ccc(C(=O)CC[N+](=O)[O-])cc1, the Activity [1] is reported as “inactive”.

In the case of O=C(CC[N+](=O)[O-])c1ccccc1, the Activity [1] is reported as “inactive”.

In the case of COc1onc(-c2ccccc2)c1Cl, the Activity [1] is reported as “inactive”.

CS(=O)(=O)c1cc(-c2ccccc2)no1 was tested, and the Activity [1] was “inactive”.

In the case of O=C(CC[N+](=O)[O-])c1ccc(Cl)cc1, the Activity [1] is reported as “inactive”.

With CCSc1cc(-c2ccccc2)no1 the minimal effective dose [2] was 125 mg/kg.

With Clc1noc(-c2ccccc2)c1Cl the minimal effective dose [2] was 31 mg/kg.

With Clc1cc(-c2ccc(Cl)c(Cl)c2)on1 the minimal effective dose [2] was 250 mg/kg.

For O=C(Nc1noc(-c2ccccc2)c1Cl)C(F)(F)F, the Activity [1] was “inactive”.

In the case of Clc1onc(-c2ccccc2)c1Cl, the Activity [1] is reported as “inactive”.

In the case of O=C(CC[N+](=O)[O-])c1ccc(Cl)c(Cl)c1, the Activity [1] is reported as “inactive”.

In the case of Nc1cc(-c2ccccc2)on1, the Activity [1] is reported as “inactive”.

For O=C(Nc1cc(-c2ccccc2)on1)C(F)(F)F, the Activity [1] was “inactive”.

Work on Clc1ccc(-c2cc(Br)no2)cc1 yielded a minimal effective dose [2] of 250 mg/kg.

COC(=O)Nc1cc(-c2ccccc2)on1 was tested, and the Activity [1] was “inactive”.

For Clc1ccc(-c2cc(Cl)no2)cc1, the minimal effective dose [2] was 62 mg/kg.

For Oc1cc(-c2ccc(Cl)cc2)on1, the Activity [1] was “inactive”.
